{
  "source": "patent US20200399335A1",
  "about": "“MODIFIED IMMUNOMODULATORY PEPTIDE” (Aarhus Universitet, priority 2018, published 2020)",
  "key": {"STING activation [1]": {"test_system": "STING activation", "conditions": "previously shown; no details given; cited from earlier work"}, "STING activation [2]": {"test_system": "STING activation", "test": "Screening of alanine modified peptides in PMA-differentiated THP1 cells stimulated with 2′3′cGAMP", "conditions": "PMA-treated THP1 (STING HAQ), peptide pre-stimulation 1 hour, then 2′3′cGAMP, supernatant 20 hours; alanine variant vs SEQ ID NO.6", "source_text": "Screening of alanine modified peptides in THP1 cells. […] THP1 cells were differentiated into macrophages using PMA. […] Twenty hours later supernatants were harvest and used to assess the production of type I IFN (A) or CXCL10 (B). Data represent the mean±SD of biological triplicates, representative of two independent experiments\n(§1) To quantify functional type I IFN the reporter cell line HEK-Blue™ IFN-α/β (InvivoGen) was utilized according to the manufacturer's instructions. […] This cell line expresses secreted embryonic alkaline phosphatase under the control of the IFN-α/β inducible ISG54 promotor. SEAP activity was assessed by measuring optical density (OD) at 620 nm on a micro plate reader (ELx808, BioTEK). The standard range was made with IFN-α (A2) (PBL Assay Science).\n(§2) Protein levels of the cytokines CXCL10 and IL6 in supernatants, were measured using DuoSet ELISA kits from RnD following the manufacturer's instructions."}, "STING activation [3]": {"test_system": "STING activation", "conditions": "PBMCs of two donors with wildtype STING, peptide priming then HT-DNA, 20 hours; vs parental SEQ ID NO.6", "procedure": "Both donors carried STING wildtype proteins allowing us to evaluate important amino acid positions within the polypeptide.\n(§3) Peripheral Blood Mononuclear cells (PBMCs) were isolated from healthy donors by Ficoll Paque gradient centrifugation (GE Healthcare). PBMCs were cultured in RPMI complete supplemented with IL-2.\nas §1, §2"}, "HSV-1 GFP": {"test_system": "HSV-1 GFP", "test": "HSV-1 GFP infection of human fibroblast, flow cytometry 48 hpi", "conditions": "for viral inhibition of alanine variant compared with SEQ ID NO.6 / viral inhibition: HSV-1 GFP MOI 0.05, 48 hpi", "source_text": "Screening of alanine modified peptides in human fibroblasts.\nData was processed in FlowJo (Tree Star)"}, "[4]": {"test": "Circular dichroism spectrum of polypeptides", "assay_type": "physicochemical", "conditions": "in the recommended buffer", "text": "FIG. 5. CD spectra of polypeptides with specific alanine mutations.\nThe Example illustrate the CD spectrum of polypeptide (SEQ ID NO. 6) and two alanine mutations (SEQ ID NO. 17 and 19). […] FIG. 5."}, "STING activity": {"test_system": "STING activity", "conditions": "PBMCs from two donors, peptide pre-treatment then cGAMP; vs peptide 101", "procedure": "as §3, §1, §2"}, "human fibroblast": {"test_system": "human fibroblast", "test": "Cell viability test in human fibroblast (CellTiter-Glo)", "assay_type": "cell-based", "conditions": "48 hpi", "description": "FIG. 8. Cell viability test. […] As a positive control for cell death, human fibroblast was treated with staurosporine (500 nM). Cell viability was analyzed 48 hpi.\nThe highest peptide concentration utilized in the present studies reached a maximum cell death percentage of less than 10%; cf. FIG. 8.\nViability tests were conducted using the CellTiter-Glo® 2.0 Assay (Promega, G9242). Each sample was conducted in technical triplicates and luminescence data analyzed."}},
  "note": "Where no end group is shown, it is not given here. The star is where a group is joined. Biotin = O=C1N[C@H]2[C@H](CS[C@H]2CCCCC(=O)*)N1",
  "data": [
    {"substance": "Biotin-EDIPTLEDLAETLKKEKLKGRKKRRQRRRPQ-NH2 [S7]", "values": [
      {"measurement": "synergistic effects on STING activation", "setting": "STING activation [1]", "result": "not to lead to synergistic effects on STING activation"}
    ]},
    {"substance": "KAYKNIVLLKGLEVINDYHF ((1)..(20) An immunomodulatory polypeptide derived from the pyrin domain of human IFI16 with amino acid residue changes.) [peptide A2]", "values": [
      {"measurement": "synergistic effect of supporting STING activation: induction of type I IFNs", "setting": "STING activation [2]", "result": "affected polypeptide synergistic effects"},
      {"measurement": "secretion of interleukin IL6", "setting": "STING activation [3]", "result": "very potent and synergistic effect"},
      {"measurement": "secretion of the chemokine CXCL10", "setting": "STING activation [3]", "result": "partly impaired CXCL10"}
    ]},
    {"substance": "KKAKNIVLLKGLEVINDYHF ((1)..(20) An immunomodulatory polypeptide derived from the pyrin domain of human IFI16 with amino acid residue changes.) [peptide A3]", "values": [
      {"measurement": "secretion of interleukin IL6", "setting": "STING activation [3]", "result": "very potent and synergistic effect"}
    ]},
    {"substance": "KKYKNAVLLKGLEVINDYHF ((1)..(20) An immunomodulatory polypeptide derived from the pyrin domain of human IFI16 with amino acid residue changes.) [peptide A6]", "values": [
      {"measurement": "synergistic effect of supporting STING activation: induction of type I IFNs", "setting": "STING activation [2]", "result": "affected polypeptide synergistic effects"},
      {"measurement": "viral inhibition of alanine variant compared with SEQ ID NO.6", "setting": "HSV-1 GFP", "result": "depleted"},
      {"measurement": "secretion of interleukin IL6", "setting": "STING activation [3]", "result": "prohibited the synergistic effects"}
    ]},
    {"substance": "KKYKNIALLKGLEVINDYHF ((1)..(20) An immunomodulatory polypeptide derived from the pyrin domain of human IFI16 with amino acid residue changes.) [peptide A7]", "values": [
      {"measurement": "viral inhibition of alanine variant compared with SEQ ID NO.6", "setting": "HSV-1 GFP", "result": "depleted"},
      {"measurement": "secretion of interleukin IL6", "setting": "STING activation [3]", "result": "prohibited the synergistic effects"}
    ]},
    {"substance": "KKYKNIVALKGLEVINDYHF ((1)..(20) An immunomodulatory polypeptide derived from the pyrin domain of human IFI16 with amino acid residue changes.) [peptide A8]", "values": [
      {"measurement": "synergistic effect of supporting STING activation: induction of type I IFNs", "setting": "STING activation [2]", "result": "affected polypeptide synergistic effects"}
    ]},
    {"substance": "KKYKNIVLAKGLEVINDYHF ((1)..(20) An immunomodulatory polypeptide derived from the pyrin domain of human IFI16 with amino acid residue changes.) [peptide A9]", "values": [
      {"measurement": "synergistic effect of supporting STING activation: induction of type I IFNs", "setting": "STING activation [2]", "result": "affected polypeptide synergistic effects"}
    ]},
    {"substance": "KKYKNIVLLAGLEVINDYHF ((1)..(20) An immunomodulatory polypeptide derived from the pyrin domain of human IFI16 with amino acid residue changes.) [peptide A10]", "values": [
      {"measurement": "synergistic effect of supporting STING activation: induction of type I IFNs", "setting": "STING activation [2]", "result": "affected polypeptide synergistic effects"},
      {"measurement": "viral inhibition", "setting": "HSV-1 GFP", "result": "~100", "unit": "%"},
      {"measurement": "antiviral effect compared with polypeptide NO. 6 at increased MOI", "setting": "HSV-1 GFP; HSV-1 GFP MOI 0.1, 25 μg/mL, 48 hpi", "result": "increased effect"},
      {"measurement": "secretion of interleukin IL6", "setting": "STING activation [3]", "result": "damped IL6 secretion"},
      {"measurement": "secretion of the chemokine CXCL10", "setting": "STING activation [3]", "result": "without affecting CXL10 responses"},
      {"measurement": "type I IFN responses", "setting": "STING activation [3]", "result": "significantly increased type I IFN responses"}
    ]},
    {"substance": "KKYKNIVLLKALEVINDYHF ((1)..(20) An immunomodulatory polypeptide derived from the pyrin domain of human IFI16 with amino acid residue changes.) [peptide A11]", "values": [
      {"measurement": "synergistic effect of supporting STING activation: CXCL10 cytokine secretion", "setting": "STING activation [2]", "result": "strongly affected the synergistic effects"},
      {"measurement": "secondary structure from CD spectrum", "setting": "[4]", "result": "random coil-coil formation"}
    ]},
    {"substance": "KKYKNIVLLKGAEVINDYHF ((1)..(20) An immunomodulatory polypeptide derived from the pyrin domain of human IFI16 with amino acid residue changes.) [peptide A12]", "values": [
      {"measurement": "synergistic effect of supporting STING activation: induction of type I IFNs", "setting": "STING activation [2]", "result": "affected polypeptide synergistic effects"}
    ]},
    {"substance": "KKYKNIVLLKGLAVINDYAA ((1)..(20) An immunomodulatory polypeptide derived from the pyrin domain of human IFI16 with amino acid residue changes.) [peptide 107]", "values": [
      {"measurement": "CXCL10 secretion", "setting": "STING activity", "result": "supported increased IFN and CXCL10 secretion"},
      {"measurement": "IFN secretion", "setting": "STING activity", "result": "supported increased IFN and CXCL10 secretion"},
      {"measurement": "IL6 response", "setting": "STING activity", "result": "impaired the IL6 response"}
    ]},
    {"substance": "KKYKNIVLLKGLAVINDYHF ((1)..(20) An immunomodulatory polypeptide derived from the pyrin domain of human IFI16 with amino acid residue changes.) [peptide A13]", "values": [
      {"measurement": "synergistic effect of supporting STING activation: CXCL10 cytokine secretion", "setting": "STING activation [2]", "result": "strongly affected the synergistic effects"},
      {"measurement": "synergistic effect of supporting STING activation: induction of type I IFNs", "setting": "STING activation [2]", "result": "affected polypeptide synergistic effects"},
      {"measurement": "secretion of the chemokine CXCL10", "setting": "STING activation [3]", "result": "without affecting CXL10 responses"},
      {"measurement": "type I IFN responses", "setting": "STING activation [3]", "result": "significantly increased type I IFN responses"},
      {"measurement": "secondary structure from CD spectrum", "setting": "[4]", "result": "random coil-coil formation"}
    ]},
    {"substance": "KKYKNIVLLKGLEAINDYHF ((1)..(20) An immunomodulatory polypeptide derived from the pyrin domain of human IFI16 with amino acid residue changes.) [peptide A14]", "values": [
      {"measurement": "viral inhibition of alanine variant compared with SEQ ID NO.6", "setting": "HSV-1 GFP", "result": "decreased"}
    ]},
    {"substance": "KKYKNIVLLKGLEVANDYHF ((1)..(20) An immunomodulatory polypeptide derived from the pyrin domain of human IFI16 with amino acid residue changes.) [peptide A15]", "values": [
      {"measurement": "secretion of interleukin IL6", "setting": "STING activation [3]", "result": "prohibited the synergistic effects"}
    ]},
    {"substance": "KKYKNIVLLKGLEVIADYHF ((1)..(20) An immunomodulatory polypeptide derived from the pyrin domain of human IFI16 with amino acid residue changes.) [peptide A16]", "values": [
      {"measurement": "secretion of interleukin IL6", "setting": "STING activation [3]", "result": "prohibited the synergistic effects"}
    ]},
    {"substance": "KKYKNIVLLKGLEVINAYHF ((1)..(20) An immunomodulatory polypeptide derived from the pyrin domain of human IFI16 with amino acid residue changes.) [peptide A17]", "values": [
      {"measurement": "viral inhibition", "setting": "HSV-1 GFP", "result": "~100", "unit": "%"}
    ]},
    {"substance": "KKYKNIVLLKGLEVINDYAF ((1)..(20) An immunomodulatory polypeptide derived from the pyrin domain of human IFI16 with amino acid residue changes.) [peptide A19]", "values": [
      {"measurement": "synergistic effect of supporting STING activation: CXCL10 cytokine secretion", "setting": "STING activation [2]", "result": "strongly affected the synergistic effects"}
    ]},
    {"substance": "KKYKNIVLLKGLEVINDYHA ((1)..(20) An immunomodulatory polypeptide derived from the pyrin domain of human IFI16 with amino acid residue changes.) [peptide A20]", "values": [
      {"measurement": "synergistic effect of supporting STING activation: CXCL10 cytokine secretion", "setting": "STING activation [2]", "result": "strongly affected the synergistic effects"}
    ]},
    {"substance": "KKYKNIVLLKGLEVINDYHF-NH2 [peptide 101]", "values": [
      {"measurement": "toxicity in human fibroblast", "setting": "human fibroblast; HSV-1 GFP, HSV-2 GFP (MOI 0.05) or uninfected", "result": "no toxicity"},
      {"measurement": "maximum cell death percentage", "setting": "human fibroblast; highest peptide concentration utilized (80 μg/mL)", "result": "less than 10%"}
    ]}
  ]
}
